What was measured:
Type in all cases: in vivo, human
[1] = tested on: noninvasively identified NASH patients; test: MAESTRO-NAFLD-1 52 week Phase 3, 100 mg open label (OL) non-cirrhotic NASH arm
Experimental: MAESTRO-NASH NCT03900429 and MAESTRO-NAFLD-1 NCT04197479 are 52 week Phase 3 registrational double blind placebo controlled clinical trials to study the effect of resmetirom in more than 2,000 NASH patients. A goal of MAESTRO-NAFLD-1, a 1,200 patient “real life” NASH study is to identify non-invasive markers that correlate with patient response to resmetirom treatment. The 169 patient, 100 mg open label (OL) arm completed the 52 week study in July 2021.
Eligibility required at least 3 metabolic risk factors (Metabolic syndrome), fibroscan kilopascals (kPa) consistent with ≥F1 fibrosis stage, and MRI-PDFF≥8%. The primary and key secondary endpoints of MAESTRO-NAFLD-1 including safety, relative percent reduction of MRI-PDFF (week 16), LDL cholesterol (LDL-C) (week 24), apolipoprotein B and triglycerides, fibroscan and 52 week endpoints were analyzed in the OL arm.

[2] = tested on: adults with biopsy-confirmed NASH (NAS≥4, F1-F3) and hepatic fat fraction ≥10%; test: 36-week Phase 2 serial MRI-PDFF and liver biopsy study; MRI-PDFF and liver volume (LV) assessment
Experimental: Hepatomegaly may cause symptoms (e.g., pain) in NASH patients, and is thought to be driven primarily by high liver fat content. […] The purpose of this study was to assess the relationship between liver triglycerides as measured by MRI-PDFF and liver volume (LV) in placebo and resmetirom-treated patients.
(§1) MRI-PDFF and liver volume (LV) were assessed in, (n=117), and a NASH-cirrhotic active resmetirom treatment arm of MAESTRO-NAFLD-1 (n=73), in patients who had at least baseline and one additional serial PDFF. LV was assessed using a validated artificial intelligence model for segmenting the liver on standard MR images.
LV at baseline was elevated in non-cirrhotic and cirrhotic NASH patients relative to literature values for healthy controls and was greater than predicted even after accounting for sex and body weight. PDFF correlated with LV at baseline in non-cirrhotic (r2=0.19, p<0.001) and more weakly in cirrhotic NASH (r2=0.079, p=0.01). Reduction in LV (CFB) correlated with reduction in PDFF in placebo (r2=0.25, p=0.001) and resmetirom (r2-0.38, p<0.0001) treated patients at 12 (and 36 (not shown)) weeks (see, e.g., FIG. 1).

[3] = tested on: well-compensated NASH cirrhotic patients; test: MAESTRO-NAFLD-1 open label resmetirom arm in well-compensated NASH cirrhotic patients
Experimental: as §1
MAESTRO-NAFLD-1 is a 52-week >1200 patient Phase 3 randomized double blind placebo controlled NASH clinical trial to study safety and biomarker effects of resmetirom, a selective thyroid hormone receptor beta agonist, in NASH patients with F1-F4 fibrosis identified using non-invasive biomarkers and imaging (NCT04197479). A goal of this “real life” NASH study is to identify non-invasive markers that correlate with individual patient response to resmetirom treatment. The study includes an open label active resmetirom treatment arm in well-compensated NASH cirrhotic patients.
Eligibility required at least 3 metabolic risk factors (metabolic syndrome), and NASH cirrhosis diagnosed on liver biopsy or according to accepted criteria. The primary and key secondary end points of the cirrhotic arm include safety, relative percent reduction of MRI-PDFF (week 16), LDL cholesterol (LDL-C) (week 24), Apolipoprotein B and triglycerides, and markers of fibrosis. Patients received 80-100 mg daily dose of resmetirom for 52 weeks.
105 well-compensated NASH cirrhotic patients were enrolled in the open label arm, 2/3 confirmed by liver biopsy. Demographics include mean age 62.7 (9.0 (SD)), female 64%, BMI 35.4 (7.4), diabetes 70%, hypertension 77%, dyslipidemia >70%, mean ASCVD score 16.1%, hypothyroid 32.4%, 51% on statins. MRE kPa, 5.7 (2.1); fibroscan kPa, 24.6 (14.9), CAP, 318 (59) and mean MRI-PDFF, 8.1% (5). Stage of cirrhosis was inversely correlated with baseline PDFF. At week 52 resmetirom lowered fibroscan CAP (−42 units (p<0.0001) and kPa (−7.6 kPa, p=0.02).

[4] = cirrhotic NASH patients with PDFF≤5% at baseline, week 16

For `CC(C)c1cc(Oc2c(Cl)cc(-n3nc(C#N)c(=O)[nH]c3=O)cc2Cl)n[nH]c1=O` [resmetirom, 2-(3,5-dichloro-4-((5-isopropyl-6-oxo-1,6-dihydropyridazin-3-yl)oxy)phenyl)-3,5-dioxo-2,3,4,5-tetrahydro-1,2,4-triazine-6-carbonitrile], the “ELF (inflammatory and fibrosis biomarker)” value ([1]; 100 mg OL arm) was “Significant reductions”, the “LV reduction relative to that predicted by % reduction in MRI-PDFF” value ([1]; 100 mg OL arm) was 2-3 fold and the “M30 (inflammatory and fibrosis biomarker)” value ([1]; 100 mg OL arm) was “Significant reductions”. For the same compound, the adiponectin ([1]; 100 mg OL arm) was “increase”, the “reverse T3 (inflammatory and fibrosis biomarker)” value ([1]; 100 mg OL arm) was “Significant reductions” and the LDL-C reduction ([1]; 100 mg OL arm, p<0.0001) was −22%. For the same compound, the apolipoprotein-B reduction ([1]; 100 mg OL arm, p<0.0001) was −24%, the triglycerides reduction ([1]; 100 mg OL arm, p<0.0001) was −24% and the “blood pressure (systolic, diastolic) reduction” value ([1]; 100 mg OL arm, p=0.02) was about 2 mmHg. For the same compound, the “patients with weight loss ≥5%” value ([1]; 100 mg OL arm, linked to resmetirom exposure (SHBG)) was about 25%, the safety ([1]; 100 mg per day up to 52 weeks) was “No safety flags were identified” and the “liver volume (LV) reduction” value ([1]; 100 mg, week 52, p<0.0001) was −23%. For the same compound, the “bone mineral density (DEXA)” value ([1]; 52 weeks) was “unchanged”, the “fibroscan CAP change relative to baseline” value ([1]; week 52, p<0.0001) was −39 (4.6) and the “fibroscan VCTE change relative to baseline” value ([1]; week 52, p<0.0001) was −1.87. The “fibroscan VCTE percent change relative to baseline” value ([1]; week 52, p<0.0001) was −20%, the “MRE change relative to baseline” value ([1]; week 52, p=0.03) was −0.34 and the LV reduction ([2]; 12 weeks, p<0.0001 vs placebo) was −18.6%. The “liver fat reduction (MRI-PDFF)” value ([2]; 36-week Phase 2, compared with placebo, associated with NASH resolution on liver biopsy) was “statistically significant liver fat reduction”, the LV reduction ([2]; 36 weeks, p<0.0001 vs placebo) was −20.5% and the “percentage of patients with ≥15% reduction in liver volume” value ([2]; Week 12, p<0.0001 vs placebo) was 69.2%. For the same compound, the “week 12 imaging response in patients who had NASH resolution and/or fibrosis reduction on biopsy at week 36” value ([2]; all such resmetirom treated patients) was “PDFF reduction ≥30% and/or LV reduction of ≥15%”, the safety and tolerability ([3]; 80-100 mg daily up to 52 weeks) was “safe and well-tolerated” and the “fibroscan CAP change” value ([3]; 80-100 mg daily, week 52, p<0.0001) was −42 units. The “fibroscan kPa change” value ([3]; 80-100 mg daily, week 52, p=0.02) was −7.6 kPa, the BP reduction ([3]; NASH cirrhotic arm) was 4-5 mm and the “LV mean % CFB” value [3, 4] was −16.3%. The “PDFF mean % CFB” value [3, 4] was −2.5%, the ApoB reduction ([3]; independent of cirrhosis stage) was 20% and the LDL-C reduction ([3]; independent of cirrhosis stage) was 20%. For the same compound, the “Lp (a) reduction” value ([3]; independent of cirrhosis stage) was 30%, the triglycerides reduction ([3]; independent of cirrhosis stage) was 21% and the GGT change ([3]; p=0.04) was −27%. For the same compound, the “PDFF lowered by” value ([3]; patients with baseline PDFF>5%, p<0.0057) was 37%, the “MRE lowered by” value ([3]; week 52) was 0.68 kPa and the “patients with MRE reduction of ≥15%” value ([3]; week 52) was 34%. For the same compound, the “patients with ≥15% reduction in LV” value ([3]; week 52, independent of baseline cirrhosis severity) was 73%.

Source: patent US12661361B2, “Resmetirom for reducing liver volume” (Madrigal Pharmaceuticals, Inc., priority 2021, dated 2026)
